Tests used:
[1] = system: Leishmania donovani axenic amastigote parasites; experiment: Leishmania donovani axenic amastigote proliferation assay; format: cell-based; details: axenic amastigotes in vitro, read-out: L. donovani amastigotes EC50
Method in brief: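 EC50 values come from CellTiter-Glo luminescence after 2-day compound exposure of axenic amastigotes (9600 per well) at 37 °C, 5% CO2. Medium: RPMI 1640, 20% heat-inactivated FBS, folic acid, adenosine, D-glucose, 25 mM MES, adjusted to pH 5.5.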

[2] = system: L. donovani HU3 strain in mouse peritoneal macrophages; experiment: Assay for proliferation of Leishmania parasites in mouse peritoneal macrophages; format: cell-based, Leishmania donovani; details: Leishmania donovani, Peritoneal macrophage, read-out: L. donavani Macrophage EC50
Method in brief: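 EC50 derives from counting SYBR Green-stained parasite nuclei by high-content imaging after 5 days' compound exposure. Host cells were uninfected BALB/c peritoneal macrophages, infected for 24 h before dosing with spleen-derived L. donovani HU3 parasites from mice infected 9–11 weeks.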

[3] = system: Trypanosoma brucei Lister 427 strain bloodstream form; experiment: Assay for proliferation of kinetoplastid parasite Trypanosoma brucei; format: cell-based; details: Lister 427 bloodstream form, 48 hours, read-out: T. brucei EC50
From the text: Assay for Proliferation of Kinetoplastid Parasite Trypanosoma brucei.
The proliferation is quantified by the addition of Cell Titer Glo (Promega®) a luminescent cell viability assay that measures the number of viable cells in culture based on the quantification of cellular ATP amount, which is an indicator of metabolically active cells.
The following assay illustrates the invention without in any way limiting the scope of the invention. This parasite proliferation assay measures the increase in parasite growth using an assay that measures ATP activity, Cell Titer Glo®.
Trypanosoma brucei Lister 427 strain is grown in HMI-9 Trypanosome media for T. brucei bloodstream form. 30 μl of HMI-9 media is dispensed into 384 well assay plates. 200 nl of compounds of the invention (in DMSO), including anti-trypanosome controls (Pentamidine and suramin), are then transferred into the assay plates, as well as DMSO alone to serve as a negative control for inhibition. Then 25 μl of a suspension of T. brucei culture in HMI-9 media is dispensed into the assay plates. The final concentration of parasites in culture corresponds to 1.7% of 0.5 uM ATP activity with Cell Titer Glo® in HMI-9 media. The plates are placed in a 37° C. incubator for 48 hours in an atmospheric environment containing 5% CO2. 40 μl of Cell Titer Glo® is dispensed into the plates. The plates are then read for luminescence. The percentage inhibition of 50%, EC50, is calculated for each compound.

Compound | EC50 [1] [µM] | EC50 [2] [µM] | EC50 [3] [µM]
COc1ccc(-c2cnc3nc(-c4cc(NC(=O)c5ccco5)ccc4Cl)[nH]c3c2)cc1Cl [Compound 48] | 0.53 | 8 | 0.076
Cc1cnc2nc(-c3cc(NC(=O)c4ccc(N5CCOCC5)cc4)ccc3Cl)[nH]c2c1 [Compound 109] | > 24.4 | > 19.1 | 15.1
Cc1cnc2nc(-c3cc(NC(=O)Cn4cccnc4=O)ccc3Cl)[nH]c2c1 [Compound 168] | > 25 | > 50 | > 16.7
Cc1cnc2nc(-c3cc(NS(=O)(=O)Cc4ccccc4)ccc3Cl)[nH]c2c1 [Example 250, N-(4-chloro-3-{6-methyl-1H-imidazo[4,5-b]pyridin-2-yl}phenyl)-1-phenylmethanesulfonamide] | > 25 | > 50 | > 25
Cc1cnc2nc(-c3cc(NC(=O)c4csc(C)n4)ccc3Cl)[nH]c2c1 [Compound 107] | 5.5 | 21.5 | 0.51
Cc1cnc2nc(-c3cc(NC(=O)C(F)(F)c4ccccc4)ccc3Cl)[nH]c2c1 [Compound 164] | > 25 | 23.4 | 12.6
Cc1cnc2nc(-c3cc(NC(=O)Cc4ccc(N(C)C)cc4)ccc3Cl)[nH]c2c1 [Compound 82] | > 25 | > 38.5 | > 14.1
Cc1cnc2nc(-c3cc(NC(=O)c4nccs4)ccc3Cl)[nH]c2c1 [Compound 192] | 10.2 | > 37.9 | 0.49
CN1CCOc2cc(-c3cnc4nc(-c5cc(NC(=O)c6ccco6)ccc5Cl)[nH]c4c3)ccc21 [Compound 72] | 0.67 | 3.2 | 0.073
Cc1cnc2nc(-c3cc(NC(=O)c4cccc(N(C)C)c4)ccc3Cl)[nH]c2c1 [Compound 184] | > 25 | > 50 | 8.4
Cc1cnc2nc(-c3cc(NC(=O)c4ccc(C(F)(F)F)cn4)ccc3Cl)[nH]c2c1 [Compound 115] | 16.8 | 25.3 | 2.6
CN1CCc2cc(-c3cnc4nc(-c5cc(NC(=O)c6ccco6)ccc5Cl)[nH]c4c3)ccc21 [Compound 59] | 1.34 | 3.7 | 0.143
CCOC(=O)Nc1ccc(Cl)c(-c2nc3ncc(C)cc3[nH]2)c1 [Compound 217] | 5.9 | 10.4 | 0.8
Cc1cnc2nc(-c3cc(NC(=O)c4sc(C)nc4C)ccc3Cl)[nH]c2c1 [Compound 191] | > 25 | > 39.1 | > 16.2
Cc1cnc2nc(-c3cc(NC(=O)c4nc(C)cs4)ccc3Cl)[nH]c2c1 [Compound 80] | 5.9 | 18.5 | 0.61
CNc1ccc(-c2cnc3nc(-c4cc(NC(=O)c5cscn5)ccc4Cl)[nH]c3c2)cc1 [Compound 349] | 1.35 | 2.69 | 0.171
N#Cc1ccc(-c2cnc3nc(-c4cc(NC(=O)c5ccco5)ccc4Cl)[nH]c3c2)cc1 [Compound 20] | 0.239 | 1.78 | 0.054
Cc1cnc2nc(-c3cc(NC(=O)c4cc(C5CC5)n[nH]4)ccc3Cl)[nH]c2c1 [Compound 158] | > 25 | > 50 | 13
Cc1cnc2nc(-c3cc(NC(=O)C4CCc5ccccc5O4)ccc3Cl)[nH]c2c1 (stereo not drawn) [Compound 198] | > 25 | > 28.7 | 8.4
Cc1cnc2nc(-c3cc(NC(=O)c4cscn4)ccc3Cl)[nH]c2c1 [Compound 205] | 14.3 | > 46.3 | 1.26
O=C(Nc1ccc(Cl)c(-c2nc3ncc(-c4ccnc(F)c4)cc3[nH]2)c1)c1ccco1 [Compound 51] | 0.175 | 0.56 | 0.0193
Cc1cnc2nc(-c3cc(NC(=O)Cc4ccc(F)cc4F)ccc3Cl)[nH]c2c1 [Compound 114] | > 25 | > 41.5 | > 11.9
O=C(Nc1ccc(Cl)c(-c2nc3ncc(-c4ccc(OCCN5CCOCC5)nc4)cc3[nH]2)c1)c1ccco1 [Compound 11] | 0.55 | 0.46 | 0.0064

Compound | EC50 [1] [µM] | EC50 [2] [µM] | EC50 [3] [µM]
Cc1cnc2nc(-c3cc(NC(=O)Cc4ccc(C(F)(F)F)cc4)ccc3Cl)[nH]c2c1 [Compound 96] | > 25 | 20.7 | 8.9
Cc1csc(C(=O)Nc2ccc(Cl)c(-c3nc4ncc(C)cc4[nH]3)c2)c1 [Compound 209] | 7.9 | 10.4 | 1.41
Cc1cnc2nc(-c3cc(NC(=O)c4noc(C)n4)ccc3Cl)[nH]c2c1 [Compound 161] | > 25 | > 50 | 9.6
Cc1cnc2nc(-c3cc(NC(=O)C(c4ccc(Cl)cc4)C(C)C)ccc3Cl)[nH]c2c1 (stereo not drawn) [Compound 141] | 13.9 | 9.7 | 6.2
CNc1ccc(-c2cnc3nc(-c4cc(NC(=O)C5CCCC5)ccc4Cl)[nH]c3c2)cc1 [Compound 346] | 2.53 | 0.47 | 0.56
Cc1cnc2nc(-c3cc(NC(=O)NC(C)C)ccc3Cl)[nH]c2c1 [Compound 249] | > 25 | > 30 | 14.1
Cc1cnc2nc(-c3cc(NC(=O)c4ccc(C(C)(C)C)o4)ccc3Cl)[nH]c2c1 [Compound 190] | > 24 | 20.2 | 5.8
Cc1cnc2nc(-c3cc(Nc4ccc(C#N)cn4)ccc3Cl)[nH]c2c1 [Compound 263] | > 25 | > 30.1 | > 25
Cc1cnc2nc(-c3cc(NC(=O)OCc4ccccc4)ccc3Cl)[nH]c2c1 [Compound 223] | > 25 | 21.4 | 14.1
Cc1cnc2nc(-c3cc(NC(=O)Cc4ccc(F)c(F)c4)ccc3Cl)[nH]c2c1 [Compound 142] | > 25 | 20.7 | > 14
Cc1cnc2nc(-c3cc(NC(=O)C(C)(C)N)ccc3Cl)[nH]c2c1 [Compound 194] | > 25 | > 50 | > 11.7
Cc1cnc2nc(-c3cc(NC(=O)c4ccno4)ccc3Cl)[nH]c2c1 [Compound 155] | 7.2 | > 39.7 | 4.3
Cc1cnc2nc(-c3cc(NC(=O)c4ncc[nH]4)ccc3Cl)[nH]c2c1 [Compound 95] | > 25 | > 50 | > 14.4
COc1ccc(-c2cnc3nc(-c4cc(NC(=O)c5ccco5)ccc4Cl)[nH]c3c2)c(OC)n1 [Compound 61] | 1.13 | 3.2 | 0.182
Cc1cnc2nc(-c3cc(NC(=O)C4CCC4)ccc3Cl)[nH]c2c1 [Compound 118] | 11.1 | 21.8 | 3.2
Cc1cnc2nc(-c3cc(Nc4ccc(Cl)cc4)ccc3Cl)[nH]c2c1 [Example 256, 4-chloro-N-(4-chlorophenyl)-3-{6-methyl-1H-imidazo[4,5-b]pyridin-2-yl}aniline] | > 25 | > 50 | > 18.1
Cc1cnc2nc(-c3cc(NC(=O)c4oc(C)nc4C)ccc3Cl)[nH]c2c1 [Compound 139] | 1.06 | 25.8 | 0.33
COc1ccc(-c2cnc3nc(-c4cc(NC(=O)c5ccco5)ccc4Cl)[nH]c3c2)cc1S(=O)(=O)N1CCCC1 [Compound 49] | 0.44 | 1.05 | 0.0067
Cc1cnc2nc(-c3cc(NC(=O)COc4ccccc4)ccc3Cl)[nH]c2c1 [Compound 120] | > 25 | > 50 | 10.5
Cc1cnc2nc(-c3cc(NC(=O)c4ccc(C(F)(F)F)nc4C)ccc3Cl)[nH]c2c1 [Compound 162] | > 25 | > 50 | 1.23
Cc1cnc2nc(-c3cc(NC(=O)Cc4cccc(F)c4F)ccc3Cl)[nH]c2c1 [Example 78, N-(4-chloro-3-{6-methyl-1H-imidazo[4,5-b]pyridin-2-yl}phenyl)-2-(2,3-difluorophenyl)acetamide] | > 25 | > 50 | > 6.6
Cc1cnc2nc(-c3cc(NC(=O)N4CCCC4)ccc3Cl)[nH]c2c1 [Compound 245] | 1.77 | 18.8 | 0.241
Cc1cnc2nc(-c3cc(NC(=O)c4ccncc4)ccc3Cl)[nH]c2c1 [Compound 212] | 6.6 | 22.5 | 2.65

Source: patent publication US9233961B2, “Compounds and compositions for the treatment of parasitic diseases” (Novartis AG, priority 2013, dated 2016)
